Drawing on ChEMBL document CHEMBL3046317, “Synthesis and Herbicidal Activity of Sulfonylureas with Fused Heterocyclic Moiety” (1994), this text covers Activity for ten compounds.

What all share (type): functional
For assay [1], the system named is Echinochloa oryzicola. The assay is described as follows: Herbicidal activity against Echinochloa oryzicola assessed as killing at 10 g/ha by pot test.
In assay [2] the test system is Rotala indica. Nature of the assay: Herbicidal activity against Rotala indica assessed as killing at 1 g/ha by pot test.
Assay [3] has as its system Lindernia procumbens. The assay is described as follows: Herbicidal activity against Lindernia procumbens assessed as killing at 1 g/ha by pot test.
In assay [4] the test system is Sagittaria pygmaea. The assay is described as follows: Herbicidal activity against Sagittaria pygmaea assessed as killing at 1 g/ha by pot test.
The test system of assay [5] is Schoenoplectiella juncoides. Nature of the assay: Herbicidal activity against Schoenoplectiella juncoides assessed as killing at 1 g/ha by pot test.
For assay [6], the system named is Cyperus difformis. Nature of the assay: Herbicidal activity against Cyperus difformis assessed as killing at 1 g/ha by pot test.
Assay [7] relates to Echinochloa oryzicola. Nature of the assay: Herbicidal activity against Echinochloa oryzicola assessed as killing at 1 g/ha by pot test.
Assay [8] has as its system Rotala indica. The assay is described as follows: Herbicidal activity against Rotala indica assessed as killing at 10 g/ha by pot test.
The subject of assay [9] is Lindernia procumbens. Nature of the assay: Herbicidal activity against Lindernia procumbens assessed as killing at 10 g/ha by pot test.
Assay [10] concerns Sagittaria pygmaea. Nature of the assay: Herbicidal activity against Sagittaria pygmaea assessed as killing at 10 g/ha by pot test.
Assay [11] relates to Schoenoplectiella juncoides. The assay is described as follows: Herbicidal activity against Schoenoplectiella juncoides assessed as killing at 10 g/ha by pot test.
Assay [12] relates to Cyperus difformis. The assay is described as follows: Herbicidal activity against Cyperus difformis assessed as killing at 10 g/ha by pot test.

With `COc1cc(OC)nc(NC(=O)NS(=O)(=O)c2c(C)cc3ccccn23)n1`, the Activity with Echinochloa oryzicola [1] worked out at 76%; in the assay on Rotala indica [2] it was 1%; with Lindernia procumbens [3] it was 1%; in the assay with Sagittaria pygmaea [4], 51%; in assay [5], 1%; in the assay with Cyperus difformis [6] it was 1%. Further, the Activity in the assay on Echinochloa oryzicola [7] is 1%; in the assay on Rotala indica [8], 51%; with Lindernia procumbens [9], 51%; with Sagittaria pygmaea [10], 76%; in assay [11] it was 51%; with Cyperus difformis [12], 76%.

With `COc1cc(OC)nc(NC(=O)NS(=O)(=O)c2c(C)cn3ccccc23)n1`, the Activity is recorded as 1% with Echinochloa oryzicola [1]; 1% in the assay on Rotala indica [2]; 1% in the assay with Lindernia procumbens [3]; 51% with Sagittaria pygmaea [4]; 1% in assay [5]; 1% in the assay on Cyperus difformis [6]. Also, the Activity was 1% in the assay with Echinochloa oryzicola [7]; 1% with Rotala indica [8]; 1% in the assay with Lindernia procumbens [9]; 76% in the assay on Sagittaria pygmaea [10]; 1% in [11]; 51% in the assay on Cyperus difformis [12].

Consider `COc1cc(OC)nc(NC(=O)NS(=O)(=O)c2ncc3ccccn23)n1`, for which the Activity with Echinochloa oryzicola [1] is 1%; in the assay on Rotala indica [2] it was 51%; in the assay on Lindernia procumbens [3] it was 1%; in the assay with Sagittaria pygmaea [4], 1%; in assay [5] it was 1%; in the assay with Cyperus difformis [6], 1%. The Activity came to 1% in the assay on Echinochloa oryzicola [7]; 51% in the assay with Rotala indica [8]; 51% in the assay on Lindernia procumbens [9]; 76% with Sagittaria pygmaea [10]; 51% in assay [11]; 1% with Cyperus difformis [12].

For `COc1cc(OC)nc(NC(=O)NS(=O)(=O)c2nc(C)n3ccccc23)n1`, the Activity in the assay on Echinochloa oryzicola [1] is 1%; in the assay with Rotala indica [2], 51%; with Lindernia procumbens [3], 1%; in the assay with Sagittaria pygmaea [4], 51%; in assay [5] it was 1%; with Cyperus difformis [6], 1%. Further, the Activity in the assay on Echinochloa oryzicola [7] stood at 1%; with Rotala indica [8], 76%; in the assay on Lindernia procumbens [9], 1%; in the assay on Sagittaria pygmaea [10], 51%; in [11], 1%; in the assay with Cyperus difformis [12], 76%.

With `COc1cc(OC)nc(NC(=O)NS(=O)(=O)c2ncn3ccccc23)n1`, the Activity in the assay on Echinochloa oryzicola [1] was 51%; in the assay with Rotala indica [2] it was 51%; in the assay with Lindernia procumbens [3] it was 1%; with Sagittaria pygmaea [4] it was 1%; in assay [5], 1%; in the assay on Cyperus difformis [6], 51%. The Activity in the assay with Echinochloa oryzicola [7] worked out at 1%; in the assay on Rotala indica [8], 76%; with Lindernia procumbens [9] it was 51%; in the assay on Sagittaria pygmaea [10], 76%; in assay [11], 1%; with Cyperus difformis [12], 76%.

As for `COc1cc(OC)nc(NC(=O)NS(=O)(=O)c2c(C)nn3ccccc23)n1`, the Activity in the assay on Echinochloa oryzicola [1] is on record as 88%; in the assay with Rotala indica [2], 88%; in the assay with Lindernia procumbens [3], 76%; in the assay on Sagittaria pygmaea [4], 88%; in [5], 76%; in the assay on Cyperus difformis [6] it was 88%. In addition, the Activity in the assay with Echinochloa oryzicola [7] turned out to be 88%; in the assay with Rotala indica [8], 88%; with Lindernia procumbens [9], 88%; with Sagittaria pygmaea [10] it was 88%; in assay [11] it was 100%; in the assay on Cyperus difformis [12], 88%.

Regarding `COc1cc(OC)nc(NC(=O)NS(=O)(=O)c2c(C)nn3cccnc23)n1`, the Activity with Echinochloa oryzicola [1] is recorded as 88%; in the assay with Rotala indica [2] it was 76%; in the assay with Lindernia procumbens [3], 88%; in the assay on Sagittaria pygmaea [4], 76%; in assay [5], 76%; in the assay with Cyperus difformis [6] it was 88%. The Activity amounted to 88% in the assay on Echinochloa oryzicola [7]; 88% with Rotala indica [8]; 88% with Lindernia procumbens [9]; 88% with Sagittaria pygmaea [10]; 100% in assay [11]; 88% with Cyperus difformis [12].

With `COc1cc(OC)nc(NC(=O)NS(=O)(=O)c2c(C)nc3n(C)ccn23)n1`, the Activity turned out to be 88% in the assay on Echinochloa oryzicola [1]; 51% in the assay on Rotala indica [2]; 51% in the assay with Lindernia procumbens [3]; 1% in the assay on Sagittaria pygmaea [4]; 1% in [5]; 1% with Cyperus difformis [6]. The Activity in the assay with Echinochloa oryzicola [7] is reported as 1%; with Rotala indica [8] it was 88%; in the assay with Lindernia procumbens [9], 51%; in the assay on Sagittaria pygmaea [10] it was 76%; in assay [11], 76%; with Cyperus difformis [12] it was 76%.

With `COc1cc(OC)nc(NC(=O)NS(=O)(=O)c2c(C)nc3scnn23)n1`, the Activity with Echinochloa oryzicola [1] is 88%; in the assay with Rotala indica [2], 76%; in the assay with Lindernia procumbens [3], 76%; in the assay with Sagittaria pygmaea [4] it was 1%; in [5], 51%; in the assay with Cyperus difformis [6] it was 1%. In addition, the Activity in the assay on Echinochloa oryzicola [7] worked out at 76%; in the assay with Rotala indica [8], 88%; in the assay on Lindernia procumbens [9], 88%; in the assay with Sagittaria pygmaea [10], 88%; in assay [11], 88%; in the assay with Cyperus difformis [12], 88%.

In the case of `COc1cc(OC)nc(NC(=O)NS(=O)(=O)c2c(C)nc3cccnn23)n1`, the Activity was 100% in the assay on Echinochloa oryzicola [1]; 88% in the assay with Rotala indica [2]; 88% in the assay on Lindernia procumbens [3]; 88% with Sagittaria pygmaea [4]; 100% in assay [5]; 88% in the assay on Cyperus difformis [6]. Besides, the Activity in the assay on Echinochloa oryzicola [7] worked out at 88%; in the assay with Rotala indica [8], 88%; with Lindernia procumbens [9] it was 88%; in the assay with Sagittaria pygmaea [10] it was 100%; in [11] it was 100%; in the assay on Cyperus difformis [12] it was 100%.
